Source: patent US20100331269A1, “TRITERPENES DERIVATIVES AND USES THEREOF AS ANTITUMOR AGENTS OR ANTI-INFLAMMATORY AGENTS” (priority 2006, published 2010)

What was measured:
U-251 human glioma cells = test: Cytotoxicity, resazurin metabolism assay, U-251; format: cell-based; details: mean ± SD
Excerpt: (§1) Human lung carcinoma (A-549), human colon adenocarcinoma (DLD-1), human normal fibroblasts (WS1), mice melanoma (B16-F1), Human glioma (U-251), Human hepatocellular carcinoma (HEP G2), Human prostate adenocarcinoma (PC-3), Human ovary teratocarcinoma metastatic (PA-1), Human breast adenocarcinona metastatic (MDA-MB-231), Human breast adenocarcinoma (MCF-7) and Human malignant melanoma (SK-MEL-2) cell lines were obtained from the American Type Culture Collection (ATCC). All cell lines were cultured in minimum essential medium containing Earle's salts and L-glutamine (Mediatech Cellgro, Va.), to which was added 10% fetal bovine serum (Hyclone), vitamins (1×), penicillin (100 I.U./mL) and streptomycin (100 μg/mL), essential amino acids (1×) and sodium pyruvate (1×) (Mediatech Cellgro, Va.). Cells were kept at 37° C. in a humidified environment containing 5% CO2.
(§2) Exponentially growing cells were plated in 96-well microplates (Costar, Corning Inc.) at a density of 5×10^3 cells per well in 100 μL of culture medium and were allowed to adhere for 16 hours before treatment. Increasing concentrations of each compound in DMSO (Sigma-Aldrich) were then added (100 μL per well) and the cells were incubated for 48 h. […] Cytotoxicity was assessed using resazurin (O'Brien, J. et al., Eur. J. Biochem. 2000, 267, 5421-5426) on an automated 96-well Fluoroskan Ascent F1™ plate reader (Labsystems) using excitation and emission wavelengths of 530 nm and 590 nm, respectively. Fluorescence was proportional to the cellular metabolic activity in each well. Survival percentage was defined as the fluorescence in experimental wells compared to that in control wells after subtraction of blank values. Each experiment was carried out three times in triplicata. IC50 results were expressed as mean±standard deviation.
(§3) Compounds presented in Table 5 below were also tested in the following tumour cell lines: U-251 (Human glioma), HEP G2 (Human hepatocellular carcinoma), PC-3 (Human prostate adenocarcinoma), PA-1 (Human ovary teratocarcinoma metastatic), MDA-MB-231 (Human breast adenocarcinona metastatic), MCF-7 (Human breast adenocarcinoma) and SK-MEL-2 (Human malignant melanoma).

[1] = tested on: MCF-7 human breast adenocarcinoma cells; test: Cytotoxicity, resazurin metabolism assay, MCF-7; format: cell-based; details: mean ± SD
Excerpt: as §1, §2, §3

[2] = tested on: SK-Mel-2 human melanoma cells; test: Cytotoxicity, resazurin metabolism assay, SK-Mel-2; format: cell-based; details: mean ± SD
Excerpt: as §1, §2, §3

[3] = tested on: PA-1 human ovary teratocarcinoma cells; test: Cytotoxicity, resazurin metabolism assay, PA-1; format: cell-based; details: mean ± SD
Excerpt: as §1, §2, §3

[4] = tested on: B16-F1 mouse melanoma cells; test: Cytotoxicity, resazurin metabolism assay, B16-F1; format: cell-based; details: 48 h, mean ± SD
Excerpt: as §1, §2
(§4) The cytotoxicity of triterpenes (1-8) and corresponding glycosides (9-30) (Table 2 below) as well as of germanicane-type triterpenes and glycosides (31-44) (Table 3 below) was assessed towards human cancer (A-549, DLD-1), mouse melanoma (B16-F1) and human normal skin fibroblast (WS1) cell lines using the resazurin reduction test (RTT test) as previously described (O'Brien, J. et al., Eur. J. Biochem. 2000, 267, 5421-5426). Measurements of fluorescence were carried out after 48 continuous hours of contact between compounds and cells. Results presented in Tables 2 and 3 below express the concentration inhibiting 50% of the cell growth (IC50). Known for its activity against A-549, betulinic acid (3) was used as a positive control in this experimentation. […] The cytotoxic activity of some of these compounds was also assessed using the Hoechst DNA assay (Table 4 below).

[5] = tested on: Hep G2 human hepatocellular carcinoma cells; test: Cytotoxicity, resazurin metabolism assay, Hep G2; format: cell-based; details: mean ± SD
Excerpt: as §1, §2, §3

[6] = tested on: WS-1 human normal skin fibroblasts; test: Cytotoxicity, resazurin metabolism assay, WS-1; format: cell-based; details: 48 h, mean ± SD
Excerpt: as §1, §2, §4

[7] = tested on: PC-3 human prostate adenocarcinoma cells; test: Cytotoxicity, resazurin metabolism assay, PC-3; format: cell-based; details: mean ± SD
Excerpt: as §1, §2, §3

[8] = tested on: MDA-MB-231 human breast adenocarcinoma cells; test: Cytotoxicity, resazurin metabolism assay, MDA-MB-231; format: cell-based; details: mean ± SD
Excerpt: as §1, §2, §3

[9] = tested on: A-549 human lung carcinoma cells; test: Cytotoxicity, resazurin metabolism assay, A-549; format: cell-based; details: 48 h, mean ± SD
Excerpt: as §1, §2, §4

[10] = tested on: DLD-1 human colorectal adenocarcinoma cells; test: Cytotoxicity, resazurin metabolism assay, DLD-1; format: cell-based; details: 48 h, mean ± SD
Excerpt: as §1, §2, §4

DLD-1 cells = test: Cytotoxicity, Hoechst DNA assay, DLD-1; format: cell-based, human; details: ± SD
Excerpt: as §1, §4

A-549 cells = test: Cytotoxicity, Hoechst DNA assay, A-549; format: cell-based, human; details: ± SD
Excerpt: as §1, §4

WS-1 cells = test: Cytotoxicity, Hoechst DNA assay, WS-1; format: cell-based, human; details: ± SD
Excerpt: as §1, §4

B16-F1 cells = test: Cytotoxicity, Hoechst DNA assay, B16-F1; format: cell-based, mouse; details: ± SD
Excerpt: as §1, §4

| SMILES | IC50 (U-251 human glioma cells) [µM] | IC50 [1] [µM] | IC50 [2] [µM] | IC50 [3] [µM] | IC50 [4] [µM] | IC50 [5] [µM] | IC50 [6] [µM] | IC50 [7] [µM] | IC50 [8] [µM] | IC50 [9] [µM] | IC50 [10] [µM] | IC50 (DLD-1 cells) [µM] | IC50 (A-549 cells) [µM] | IC50 (WS-1 cells) [µM] | IC50 (B16-F1 cells) [µM] |
| --- | --- | --- | --- | --- | --- | --- | --- | --- | --- | --- | --- | --- | --- | --- | --- |
| C=C(C)C1CCC2(CO)CCC3(C)C(CCC4C5(C)CCC(OC6OCC(O)C(O)C6O)C(C)(C)C5CCC43C)C12 [Compound 14, 3-O-α-D-Arabinopyranoside of Betulin] | 40 ± 7 | 61 ± 7 | 54 ± 3 | 41 ± 5 | 38 ± 3 | 38 ± 2 | 59 ± 5 | 65 ± 6 | 49.2 ± 0.9 | 41 ± 3 | 63 ± 8 | – | – | – | – |
| C=C(C)C1CCC2(C(=O)O)CCC3(C)C(CCC4C5(C)CCC(OC6OC(CO)C(O)C(O)C6O)C(C)(C)C5CCC43C)C12 [Compound 29, 3-O-β-D-Mannopyranoside of Betulinic Acid] | 6 ± 2 | 20 ± 2 | 4.7 ± 0.6 | 2.2 ± 0.2 | – | 26 ± 2 | 16 ± 3 | 27 ± 3 | 21 ± 2 | 41 ± 4 | 14.9 ± 0.5 | – | – | – | – |
| C=C(C)[C@@H]1CC[C@]2(C)CC[C@]3(C)[C@H](CC[C@@H]4[C@@]5(C)CC[C@H](O[C@H]6OC[C@@H](O)[C@@H](O)[C@@H]6O)C(C)(C)[C@@H]5CC[C@]43C)[C@@H]12 [Compound 11, 3-O-α-D-Arabinopyranoside of Lupeol] | 10.1 ± 0.2 | 23 ± 2 | 10 ± 0.8 | 9.8 ± 0.6 | 27 ± 2 | 10 ± 0.9 | 15.8 ± 0.8 | 26 ± 3 | 11 ± 1 | 28 ± 2 | 50 ± 6 | 69 ± 7 | 34 ± 2 | 24 ± 1 | 28 ± 1 |
| C=C(C)[C@@H]1CC[C@]2(C(=O)O)CC[C@]3(C)[C@H](CC[C@@H]4[C@@]5(C)CC[C@H](O[C@@H]6OC[C@@H](O)[C@H](O)[C@H]6O)C(C)(C)[C@@H]5CC[C@]43C)[C@@H]12 [Compound 30, 3-O-β-D-Xylopyranoside of betulinic acid] | 26 ± 6 | 23 ± 4 | 36 ± 4 | 7.9 ± 0.9 | – | 43 ± 3 | 21 ± 1 | 46 ± 8 | 40 ± 4 | 14 ± 2 | 19.2 ± 0.8 | – | – | – | – |
| CC1(C)CCC23CCC4(C)C(CCC5C6(C)CCC(OC7OC(CO)C(O)C(O)C7O)C(C)(C)C6CCC54C)C2C1OC3 [Compound 33, 3-O-β-D-Glucopyranoside of Allobetulin] | 46 ± 1 | 51 ± 2 | 37 ± 2 | 39 ± 2 | – | 44 ± 5 | 45 ± 3 | 42 ± 8 | 41.2 ± 0.7 | 31 ± 2 | 41.6 ± 0.9 | – | – | – | – |
| C=C(C)C1CCC2(CO)CCC3(C)C(CCC4C5(C)CCC(OC6OC(CO)C(O)C(O)C6O)C(C)(C)C5CCC43C)C12 [Compound 26, 3-O-β-D-Mannopyranoside of Betulin] | 8.3 ± 0.4 | 9.2 ± 0.4 | 8.8 ± 0.4 | 7.6 ± 0.4 | – | 8.3 ± 0.4 | 5.3 ± 0.5 | 8.6 ± 0.4 | 9.1 ± 0.2 | 7.5 ± 0.1 | 11 ± 0.5 | – | – | – | – |
| C=C(C)[C@@H]1CC[C@]2(C(=O)OC)CC[C@]3(C)[C@H](CC[C@@H]4[C@@]5(C)CC[C@H](O[C@H]6OC[C@@H](O)[C@@H](O)[C@@H]6O)C(C)(C)[C@@H]5CC[C@]43C)[C@@H]12 [Compound 20, 3-O-α-D-Arabinopyranoside of Methyl Betulinate] | 15 ± 1 | 21 ± 3 | 16 ± 1 | 16 ± 4 | 13.3 ± 0.4 | 15 ± 2 | 12.5 ± 0.4 | 17 ± 1 | 16.3 ± 0.8 | 13.5 ± 0.6 | 18 ± 1 | 16 ± 0.6 | 11.7 ± 0.8 | 13.2 ± 0.7 | 12.6 ± 0.5 |
| CC1(C)CC[C@]23CC[C@]4(C)[C@H](CC[C@@H]5[C@@]6(C)CC[C@H](O[C@@H]7O[C@H](CO)[C@H](O)[C@H](O)[C@H]7O)C(C)(C)[C@@H]6CC[C@]54C)[C@H]2[C@H]1OC3 [Compound 36, 3-O-β-D-Galactopyranoside of Allobetulin] | 53 ± 4 | 60 ± 20 | 40 ± 3 | 45 ± 4 | – | 41 ± 10 | 30 ± 9 | 45 ± 6 | 44 ± 4 | 30 ± 10 | 42 ± 9 | – | – | – | – |
| C=C(C)[C@@H]1CC[C@]2(C(=O)OC)CC[C@]3(C)[C@H](CC[C@@H]4[C@@]5(C)CC[C@H](O[C@@H]6O[C@H](CO)[C@@H](O)[C@H](O)[C@H]6O)C(C)(C)[C@@H]5CC[C@]43C)[C@@H]12 [Compound 18, 3-O-β-D-Glucopyranoside of Methyl Betulinate] | 84 ± 2 | 110 ± 6 | 103 ± 4 | 60 ± 20 | 7.1 ± 0.3 | 79 ± 5 | 9.3 ± 0.2 | 130 ± 30 | 101.7 ± 0.1 | 8.4 ± 0.3 | 3.93 ± 0.09 | 4 ± 0.2 | 9.3 ± 0.6 | 12 ± 2 | 7.2 ± 0.8 |
| C=C(C)[C@@H]1CC[C@]2(C(=O)O)CC[C@]3(C)[C@H](CC[C@@H]4[C@@]5(C)CC[C@H](O[C@H]6OC[C@@H](O)[C@@H](O)[C@@H]6O)C(C)(C)[C@@H]5CC[C@]43C)[C@@H]12 [Compound 23, 3-O-α-D-Arabinopyranoside of Betulinic Acid] | 70 ± 10 | 45 ± 9 | 62 ± 7 | 20 ± 2 | 11 ± 1 | 66 ± 9 | 47 ± 5 | 110 ± 10 | 57 ± 6 | 10 ± 2 | 17 ± 3 | 10 ± 1 | 5.7 ± 0.8 | 32 ± 2 | 10.2 ± 0.6 |
| C=C(C)[C@@H]1CC[C@]2(C)CC[C@]3(C)[C@H](CC[C@@H]4[C@@]5(C)CC[C@H](O[C@@H]6O[C@H](CO)[C@@H](O)[C@H](O)[C@H]6O)C(C)(C)[C@@H]5CC[C@]43C)[C@@H]12 [Compound 9, 3-O-6-D-Glucopyranoside of lupeol] | 17.9 ± 0.7 | 16.4 ± 0.5 | 15.5 ± 0.6 | 13 ± 1 | 15 ± 0.7 | 17.8 ± 0.2 | 13.3 ± 0.5 | 30 ± 2 | 20.9 ± 0.6 | 14 ± 1 | 14 ± 1 | 19 ± 1 | 22 ± 2 | 20 ± 2 | 18 ± 2 |
| C=C(C)C1CCC2(CO)CCC3(C)C(CCC4C5(C)CCC(OC6OC(C)C(O)C(O)C6O)C(C)(C)C5CCC43C)C12 [Compound 13, 3-O-α-L-Rhamnopyranoside of Betulin] | 170 ± 40 | 19 ± 4 | 110 ± 20 | 180 ± 30 | 18 ± 1 | 11 ± 0.9 | 33 ± 5 | 61 ± 6 | 33 ± 2 | 22 ± 3 | 50 ± 10 | – | – | – | – |
